The values below come from patent US20260076937A1, “COMPOSITION FOR PREVENTING OR TREATING AUTOIMMUNE DISEASES COMPRISING A BCAT1 INHIBITOR” (Seoul National University R&DB Foundation, priority 2024, published 2026).

“Also recorded” adds a separate entry of the source.

The assay has as its system mouse CD4+ naive T cells. As to the kind of experiment: Th17/Th1 polarization of mouse CD4+ naive T cells from iLN. Type of assay: cell-based. The settings on record: Bi2 10 μM. As to the method:
Blocking BCAT1 with Bi2 attenuates Th17 differentiation in mice. In FIG. 13A mRNA expression of slc7a5 and bcat1 in mouse inguinal LN (iLN) cells was analyzed by RT-qPCR at 24 hours after TCR stimulation with anti-CD3/CD28 antibody (n=5). In FIG. 13B protein expression of BCAT1 in mouse inguinal LN cells was analyzed at 24 hours after stimulation of TCR with anti-CD3/CD28 antibody (n=5). In FIGS. 13C to 13D, mouse CD4^+ naive T cells derived from iLN were differentiated under […] or Th1 polarization conditions for 5 days in the presence of Bi2 (10 μM). The amounts of IFN-γ (c) and IL-17A (d) in the culture supernatants of Th1 and Th17 cells (n=5) are shown. In FIG. 13E, the cells of mouse iLN were stimulated with anti CD3/CD28 antibody in the presence of Bi2 (10 μM) for 24 hours. Cell lysates were immunoblotted for HIF-1α (n=3 independent experiments). Cells treated with COCl2 served as a positive control for HIF-1α. […] FIG. 13F is a representative histogram plot of intracellular HIF-1α in cells of mouse iLN. Cells were stimulated with anti CD3/CD28 antibody in the presence of Bi2 (10 μM) for 24 hours. […] The significance was indicated as *=p<0.05, **=p<0.01, ***=p<0.001, according to Mann-Whitney U test (a, c, d, f) or the two-tailed non-pair t test (b, e)).

Regarding `O=C(NNS(=O)(=O)c1ccccc1C(F)(F)F)c1cc2cc(Cl)ccc2o1` [Bi2, BCATc inhibitor 2], the IFN-γ production entry (Th1 polarization 5 days) is listed as “failed to inhibit”. The “differentiation of Th17 cells (IL-17A)” value (Th17 polarization 5 days) was “preferentially inhibited; also recorded: attenuates”.
